What is called melting point is the temperature of the solid-liquid transition. `COc1cccc([C@H]2O[C@H](CC(=O)Nc3ccc4oc(CCC(=O)O)cc4c3)C(=O)N(CC(C)(C)CO)c3ccc(Cl)cc32)c1OC` [Example 159, 3-[5-[[[(3R,5S)-7-Chloro-5-(2,3-dimethoxyphenyl)-1-(3-hydroxy-2,2-dimethylpropyl)-2-oxo-1,2,3,5-tetrahydro-4,1-benzoxazepin-3-yl]acetyl]amino]-1-benzofuran-2-yl]propanoic acid] returned a melting point of 207 to 209 °C.
To `COc1cccc([C@H]2O[C@H](CC(=O)NCc3ccc(C(=O)O)cc3)C(=O)N(CC(C)(C)CO)c3ccc(Cl)cc32)c1OC` [Example 75, 4-[[(3R,5S)-7-Chloro-5-(2,3-dimethoxyphenyl)-1-(3-hydroxy-2,2-dimethylpropyl)-2-oxo-1,2,3,5-tetrahydro-4,1-benzoxazepin-3-yl]acetyl]aminomethylbenzoic acid] belongs 143 to 144 °C; to `COc1cccc([C@H]2O[C@H](CC(=O)NCCCOc3ccc(CC(=O)O)cc3)C(=O)N(CC(C)(C)CO)c3ccc(Cl)cc32)c1OC` [Example 96, 4-[3-[[(3R,5S)-7-Chloro-5-(2,3-dimethoxyphenyl)-1-(3-hydroxy-2,2-dimethylpropyl)-2-oxo-1,2,3,5-tetrahydro-4,1-benzoxazepin-3-yl]acetyl]aminopropyloxy]phenylacetic acid], 125 to 128 °C.
To `COc1cccc([C@H]2O[C@H](CC(=O)Nc3ncc(C(=O)O)s3)C(=O)N(CC(C)(C)CO)c3ccc(Cl)cc32)c1OC` [Example 141, 2-[[[(3R,5S)-7-Chloro-5-(2,3-dimethoxyphenyl)-1-(3-hydroxy-2,2-dimethylpropyl)-2-oxo-1,2,3,5-tetrahydro-4,1-benzoxazepin-3-yl]acetyl]amino]-1,3-thiazole-5-carboxylic acid] belongs 241 to 242.2 °C.
To `COc1cccc([C@H]2O[C@H](CC(=O)Nc3cc(OC(C)C)c4oc(C(=O)O)cc4c3)C(=O)N(CC(C)(C)CO)c3ccc(Cl)cc32)c1OC` [Example 152, 5-[[[(3R,5S)-7-Chloro-5-(2,3-dimethoxyphenyl)-1-(3-hydroxy-2,2-dimethylpropyl)-2-oxo-1,2,3,5-tetrahydro-4,1-benzoxazepin-3-yl]acetyl]amino]-7-[(1-methylethyl)oxy]-1-benzofuran-2-carboxylic acid] belongs 188.6 to 189.7 °C.
`CCc1cc(NC(=O)C[C@H]2O[C@H](c3cccc(OC)c3OC)c3cc(Cl)ccc3N(CC(C)(C)CO)C2=O)cc2cc(C(=O)O)oc12` [Example 162, 5-[[2-[(3R,5S)-7-Chloro-5-(2,3-dimethoxyphenyl)-1-(3-hydroxy-2,2-dimethylpropyl)-2-oxo-1,2,3,5-tetrahydro-4,1-benzoxazepin-3-yl]acetyl]amino]-7-ethyl-1-benzofuran-2-carboxylic acid]: the melting point is 188 to 189 °C.
To `COc1cccc([C@H]2O[C@H](CC(=O)Nc3cccc(OC(F)(F)C(=O)O)c3)C(=O)N(CC(C)(C)CO)c3ccc(Cl)cc32)c1OC` [Example 133, 2-[3-[[[(3R,5S)-7-Chloro-5-(2,3-dimethoxyphenyl)-1-(3-hydroxy-2,2-dimethylpropyl)-2-oxo-1,2,3,5-tetrahydro-4,1-benzoxazepin-3-yl]acetyl]amino]phenyloxy]-2,2-difluoroacetic acid] belongs 119 to 121 °C; to `COc1cccc([C@H]2O[C@H](CC(=O)Nc3ccc4oc(C(=O)O)c(OC)c4c3)C(=O)N(CC(C)(C)CO)c3ccc(Cl)cc32)c1OC` [Example 153, 5-[[[(3R,5S)-7-chloro-5-(2,3-dimethoxyphenyl)-7-chloro-1-(3-hydroxy-2,2-dimethylpropyl)-2-oxo-1,2,3,5-tetrahydro-4,1-benzoxazepin-3-yl]acetyl]amino]-3-methoxy-1-benzofuran-2-carboxylic acid], 175.4 to 176.3 °C.
For `COc1cccc([C@H]2O[C@H](CC(=O)Nc3ccc4oc(C(=O)O)cc4c3)C(=O)N(CC(C)(C)CO)c3ccc(Cl)cc32)c1OC` [Example 81, 5-[[[(3R,5S)-7-Chloro-5-(2,3-dimethoxyphenyl)-1-(3-hydroxy-2,2-dimethylpropyl)-2-oxo-1,2,3,5-tetrahydro-4,1-benzoxazepin-3-yl]acetyl]amino]benzofuran-2-carboxylic acid], the melting point is 171 to 172 °C.
To `COc1cccc([C@H]2O[C@H](CC(=O)Nc3nc(C)c(C(=O)O)s3)C(=O)N(CC(C)(C)CO)c3ccc(Cl)cc32)c1OC` [Example 145, 2-[[[(3R,5S)-7-Chloro-5-(2,3-dimethoxyphenyl)-1-(3-hydroxy-2,2-dimethylpropyl)-2-oxo-1,2,3,5-tetrahydro-4,1-benzoxazepin-3-yl]acetyl]amino]-4-methyl-1,3-thiazole-5-carboxylic acid] belongs 251 to 252 °C.
The value for `COc1ccc(CC(=O)O)cc1NC(=O)C[C@H]1O[C@H](c2cccc(OC)c2OC)c2cc(Cl)ccc2N(CC(C)(C)CO)C1=O` [Example 109] was 215 to 216 °C; that for `COc1cccc([C@H]2O[C@H](CC(=O)Nc3ccc4oc(C(=O)O)c(OCC(=O)O)c4c3)C(=O)N(CC(C)(C)CO)c3ccc(Cl)cc32)c1OC` [Example 155, 5-[[[(3R,5S)-7-chloro-5-(2,3-dimethoxyphenyl)-1-(3-hydroxy-2,2-dimethylpropyl)-2-oxo-1,2,3,5-tetrahydro-4,1-benzoxazepin-3-yl]acetyl]amino]-3-[(carboxymethyl)oxy]-1-benzofuran-2-carboxylic acid] was 193 to 195.5 °C.
To `COc1cccc([C@@H]2O[C@@H](CC(=O)Nc3cc(CCC(=O)O)ccc3F)C(=O)N(CC(C)(C)CO)c3ccc(Cl)cc32)c1OC` [Example 121, 3-[3-[[[(3S,5R)-7-Chloro-5-(2,3-dimethoxyphenyl)-1-(3-hydroxy-2,2-dimethylpropyl)-2-oxo-1,2,3,5-tetrahydro-4,1-benzoxazepin-3-yl]acetyl]amino]-4-fluorophenyl]propionic Acid] belongs 151 to 153 °C; to `COc1cccc([C@H]2O[C@H](CC(=O)Nc3cccc(C(=O)O)c3C)C(=O)N(CC(C)(C)CO)c3ccc(Cl)cc32)c1OC` [Example 43, 3-[[[(3R,5S)-7-chloro-5-(2,3-dimethoxyphenyl)-1-(3-hydoroxy-2-dimethylpropyl)-2-oxo-1,2,3,5-tetrahydro-4,1-benzoxazepin-3-yl]acetyl]amino]-2-methylbenzoic acid], 165 to 168 °C; to `COc1cccc([C@H]2O[C@H](CC(=O)Nc3cccc(C(=O)O)n3)C(=O)N(CC(C)(C)CO)c3ccc(Cl)cc32)c1OC` [Example 140, 6-[[[(3R,5S)-5-(2,3-Dimethoxyphenyl)-7-chloro-1-(3-hydroxy-2,2-dimethylpropyl)-2-oxo-1,2,3,5-tetrahydro-4,1-benzoxazepin-3-yl]acetyl]amino]-2-pyridinecarboxylic acid], 265 to 270 °C (dec.).
Molecule `COc1cccc([C@H]2O[C@H](CC(=O)NCCc3oc(C(=O)O)cc3C(=O)O)C(=O)N(CC(C)(C)CO)c3ccc(Cl)cc32)c1OC` [Example 28, 5-[2-[[[(3R,5S)-7-chloro-5-(2,3-dimethoxyphenyl)-1(2,2-dimethyl-3-hydroxypropyl)-2-oxo-1,2,3,5-tetrahydro-4,1-benzoxazepin-3-yl]acetyl]amino]ethyl]furan-2,4-dicarboxylic acid] returned a melting point of 155 to 157 °C.
To `COc1cccc([C@H]2O[C@H](CC(=O)Nc3cccc(C(=O)O)c3C)C(=O)N(CC(C)(C)COC(C)=O)c3ccc(Cl)cc32)c1OC` [Example 44, 3-[[[(3R,5S)-1-(3-acetoxy-2,2-dimethylpropyl)-7-chloro-5-(2,3-dimethoxyphenyl)-2-oxo-1,2,3,5-tetrahydro-4,1-benzoxazepin-3-yl]acetyl]amino]-2-metylbenzoic acid] belongs 139 to 142 °C.
To `COc1cccc([C@H]2O[C@H](CC(=O)Nc3cc(C(=O)O)ccc3F)C(=O)N(CC(C)(C)COC(C)=O)c3ccc(Cl)cc32)c1OC` [Example 107, 3-[[[(3R,5S)-1-(3-Acetoxy-2,2-dimethylpropyl)-7-chloro-5-(2,3-dimethoxyphenyl)-2-oxo-1,2,3,5-tetrahydro-4,1-benzoxazepin-3-yl]acetyl]amino]-4-fluorobenzoic acid] belongs 146 to 149 °C; to `COc1cccc([C@H]2O[C@H](CC(=O)NCc3ccc(C(=O)O)o3)C(=O)N(CC(C)(C)CO)c3ccc(Cl)cc32)c1OC` [Example 29, 5-[[[[(3R,5S)-7-chloro-5-(2,3-dimethoxyphenyl)-1-(2,2-dimethyl-3-hydroxypropyl)-2-oxo-1,2,3,5-tetrahydro-4,1-benzoxazepin-3-yl]acetyl]amino]methyl]furan-2-carboxylic acid], 128 to 131 °C.
To `COc1cccc([C@H]2O[C@H](CC(=O)Nc3cc(C)c4oc(C(=O)O)cc4c3)C(=O)N(CC(C)(C)CO)c3ccc(Cl)cc32)c1OC` [Example 161, 5-[[[(3R,5S)-7-Chloro-5-(2,3-dimethoxyphenyl)-1-(3-hydroxy-2,2-dimethylpropyl)-2-oxo-1,2,3,5-tetrahydro-4,1-benzoxazepin-3-yl]acetyl]amino]-7-methyl-1-benzofuran-2-carboxylic acid] belongs 180.7 to 182 °C; to `COc1cccc([C@H]2O[C@H](CC(=O)NCCCOc3ccc(C(=O)O)cc3)C(=O)N(CC(C)(C)CO)c3ccc(Cl)cc32)c1OC` [Example 98], 138 to 139 °C; to `COc1ccc(C(C)(C)C(=O)O)cc1NC(=O)C[C@H]1O[C@H](c2cccc(OC)c2OC)c2cc(Cl)ccc2N(CC(C)(C)CO)C1=O` [Example 137, 2-[3-[[2-[(3R,5S)-7-Chloro-5-(2,3-dimethoxyphenyl)-1-(3-hydroxy-2,2-dimethylpropyl)-2-oxo-1,2,3,5-tetrahydro-4,1-benzoxazepin-3-yl]acetyl]amino]-4-methoxyphenyl]-2,2-dimethylacetic acid], 225 to 226 °C (dec.).
